Experimental data published in patent publication US4024246A, “Antibiotic A-22082 and process for production thereof” (Eli Lilly and Company, priority 1976, dated 1977).
Like-named read-outs stand apart in the source and are kept apart here. *1 amine or outer side, *2 acyl side, *3 side chain or, on linkers, in order; H or OH if unused. Where a SMILES comes first, the peptide text is derived from it. Bridges are numbered along the chain shown (N, C = ends). [ ]: non-standard residue; d: D form. The star is where a group is joined. ξ: configuration not given here. Orn(4R-OH,5R-OH) = O=C([C@H](C[C@@H](O)[C@@H](O)N[*:3])N[*:1])[*:2]; hTyr(3S-OH,4S-OH) = N[C@H](C(=O)O)[C@H](O)[C@@H](O)c1ccc(O)cc1; ξOrn(4,5-diOH) = O=C(C(CC(O)C(O)N[*:3])N[*:1])[*:2]; ξhTyr(βξ-OH,γξ-OH) = NC(C(=O)O)C(O)C(O)c1ccc(O)cc1; Pro(3S-OH,4S-Me) = C[C@H]1CN[C@H](C(=O)O)[C@H]1O; Linoleoyl = CCCCC/C=C\C/C=C\CCCCCCCC(=O)*; ξPro(3ξ-OH,4ξ-Me) = CC1CNC(C(=O)O)C1O; Hyp = O=C(O)[CH]1C[CH](O)CN1; X1 = CCCCCC=CCC=CCCCCCCCC(=O)*

Experiments:
dermatophytes [1] = conditions: reported by F. Benz et al., Helv. Chim. Acta 57, 2459-2477 (1974); cited from earlier work
Trichophyton rubrum = experiment: disc-diffusion test, Trichophyton rubrum; type: cell-based; conditions: Table III; 1 isolate
Protocol: (§1) Antibiotic A-22082 is a useful antifungal agent. […] Antifungal activity was measured by the conventional disc-diffusion method (6-mm pads were dipped in solutions containing antibiotic A-22082; pads were placed on agar plates seeded with test organism). Table II summarizes the minimal inhibitory concentration (MIC) per disc at which antibiotic A-22082 inhibited representative organisms.
(§2) Antibiotic A-22082 is very active in in vitro disc-diffusion tests against dermatophytes.

electrometric titration = type: physicochemical; conditions: 66% aqueous dimethylformamide, initial pH 6.9
Nannizzia incurvata = experiment: disc-diffusion test, Nannizzia incurvata; type: cell-based; conditions: Table III; 1 isolate
Protocol: as §1, §2

[2] = test system: Trichophyton schoenleinii; experiment: disc-diffusion test, Trichophyton schoenleinii; type: cell-based; conditions: Table III; 1 isolate
Protocol: as §1, §2

Philaphere jean salemi = experiment: disc-diffusion test, Philaphere jean salemi; type: cell-based; conditions: Table III; 1 isolate
Protocol: as §1, §2

Candida tropicalis = experiment: disc-diffusion antifungal test, Candida tropicalis; type: cell-based; conditions: Table II, 6-mm pads, agar plates
Protocol: as §1

Trichophyton quinckeanum = experiment: disc-diffusion test, Trichophyton quinckeanum; type: cell-based; conditions: Table III; 1 isolate
Protocol: as §1, §2

[3] = test system: Epidermatophyton floccosum; experiment: disc-diffusion test, Epidermatophyton floccosum; type: cell-based; conditions: Table III; 1 isolate
Protocol: as §1, §2

Candida albicans [4] = experiment: in vivo protection of Candida albicans-infected mice; conditions: two doses
Protocol: A measure of the protection afforded is the ED50 value [the effective dose in mg./kg. which protects 50 percent of the mice; see W. Wick et al., J. Bacteriol. 81, 233-235 (19610]. The ED50 values for antibiotic A-22082 against Candida albicans in mice were 30 mg./kg. (intraperitoneal administration) and 50 mg./kg. (subcutaneous administration).

dermatophytes [5] = experiment: in vitro activity against dermatophytes; type: cell-based; conditions: in words
Protocol: as §1, §2

Trichophyton gallinae = experiment: disc-diffusion test, Trichophyton gallinae; type: cell-based; conditions: Table III; 1 isolate
Protocol: as §1, §2

[6] = test system: Trichophyton mentagrophytes; experiment: disc-diffusion antifungal test, Trichophyton mentagrophytes; type: cell-based; conditions: Table II, 6-mm pads, agar plates
Protocol: as §1, §2

Trichophyton meginini = experiment: disc-diffusion test, Trichophyton meginini; type: cell-based; conditions: Table III; 1 isolate
Protocol: as §1, §2

Trichophyton terrestre = experiment: disc-diffusion test, Trichophyton terrestre; type: cell-based; conditions: Table III; 1 isolate
Protocol: as §1, §2

solubility = type: physicochemical
Keratinomyces ajellio = experiment: disc-diffusion test, Keratinomyces ajellio; type: cell-based; conditions: Table III; 1 isolate
Protocol: as §1, §2

mice = experiment: acute toxicity in mice; type: in vivo
Protocol: 3 times over 24 hours (a total of 600 mg./kg.).

Candida albicans [7] = experiment: disc-diffusion antifungal test, Candida albicans; type: cell-based; conditions: Table II, 6-mm pads, agar plates
Protocol: as §1

SMILES: CCCCCC=CCC=CCCCCCCCC(=O)NC1CC(O)C(O)NC(=O)C2C(O)C(C)CN2C(=O)C(C(C)O)NC(=O)C(C(O)C(O)c2ccc(O)cc2)NC(=O)C2CC(O)CN2C(=O)C(C(C)O)NC1=O (stereo not drawn) [Echinocandin B] (X1-[ξOrn(4,5-diOH)]T[Hyp][ξhTyr(βξ-OH,γξ-OH)]T[ξPro(3ξ-OH,4ξ-Me)]; lactam 1-C; configuration not given here)
- activity against dermatophytes (dermatophytes [1]): inactive against dermatophytes

SMILES: CCCCC/C=C\C/C=C\CCCCCCCC(=O)N[C@H]1C[C@@H](O)[C@@H](O)NC(=O)[C@@H]2[C@@H](O)[C@@H](C)CN2C(=O)[C@H]([C@@H](C)O)NC(=O)[C@H]([C@H](O)[C@@H](O)c2ccc(O)cc2)NC(=O)[C@@H]2C[C@@H](O)CN2C(=O)[C@H]([C@@H](C)O)NC1=O [antibiotic A-22082] (Linoleoyl-[Orn(4R-OH,5R-OH)]T[Hyp][hTyr(3S-OH,4S-OH)]T[Pro(3S-OH,4S-Me)]; lactam 1-C)
- MIC (Trichophyton rubrum): < .0098 mcg/disc
- pKa value (electrometric titration): 12.7
- MIC (Nannizzia incurvata): 0.312 mcg/disc
- MIC [2]: 0.0195 mcg/disc
- MIC (Philaphere jean salemi): > 1.25 mcg/disc
- minimal inhibitory concentration (MIC) per disc (Candida tropicalis): 3.12 mcg./disc
- MIC (Trichophyton quinckeanum): > 1.25 mcg/disc
- MIC [3]: 1.25 mcg/disc
- ED50 (effective dose which protects 50 percent of the mice) (Candida albicans [4]; intraperitoneal administration): 30 mg/kg
- ED50 (effective dose which protects 50 percent of the mice) (Candida albicans [4]; subcutaneous administration): 50 mg/kg
- protection against C. albicans (Candida albicans [4]; Candida albicans-infected mice): protection against C. albicans was provided
- activity against dermatophytes (dermatophytes [5]): very active
- activity against dermatophytes (dermatophytes [5]; listed as A-22082): active against dermatophytes
- MIC (Trichophyton gallinae): > 1.25 mcg/disc
- minimal inhibitory concentration (MIC) per disc [6]: 0.078 mcg./disc
- MIC (Trichophyton meginini): 0.0195 mcg/disc
- MIC (Trichophyton terrestre): 0.0195 mcg/disc
- solubility in nonpolar organic solvents (solubility; diethyl ether, petroleum ether): insoluble
- solubility in aqueous solutions (solubility; especially those having a pH greater than 7.0): soluble
- solubility in organic solvents (solubility; methanol, ethanol, dimethylformamide, dimethyl sulfoxide, ethyl acetate): soluble
- MIC (Keratinomyces ajellio): 0.156 mcg/disc
- signs of acute toxicity (mice; intraperitoneal, 100 mg./kg. twice per day for three days (total 600 mg./kg.)): no signs of acute toxicity
- signs of acute toxicity (mice; ip, 200 mg./kg. 3 times over 24 hours (total 600 mg./kg.)): no signs of acute toxicity
- signs of acute toxicity (mice; subcutaneous, 100 mg./kg. twice per day for three days (total 600 mg./kg.)): no signs of acute toxicity
- minimal inhibitory concentration (MIC) per disc (Candida albicans [7]): 0.625 mcg./disc
